Data: patent EP0686394A1, “Use of N-[[5-(naphthales-1-yl)-1,3-dioxan-2-yl]alkyl]acetamide derivatives for the preparation of medicaments for use in the treatment of neurodegenerative disorders” (SYNTHELABO, priority 1994, dated 1995)
Read-outs that look alike come from different tables or passages of the source.

Experiments:
[1] = test system: ischémie cérébrale globale chez la souris; assay: global cerebral ischemia test in mice (cardiac arrest induced by intravenous magnesium chloride; survival time); type: in vivo; conditions: Mus musculus, read-out: dose efficace 3 secondes (DE3sec)
Text: Ainsi les composés utilisables selon l'invention ont été soumis au test de l'ischémie cérébrale globale chez la souris. L'ischémie est due à un arrêt cardiaque induit par une injection intraveineuse rapide de chlorure de magnésium. Dans ce test on mesure le "temps de survie", c'est-à-dire l'intervalle entre le moment de l'injection de chlorure de magnésium et le dernier mouvement respiratoire observable de chaque souris. Ce dernier mouvement est considéré comme l'indice ultime d'une fonction du système nerveux central. L'arrêt respiratoire apparaît approximativement 21 secondes après l'injection de chlorure de magnésium. Des souris mâles (SWISS OF₁ IFFA CREDO) sont étudiées par groupes de 10. Elles sont nourries et abreuvées ad libitum avant les essais. Le temps de survie est mesuré 10 minutes après l'administration intrapéritonéale ou 5 minutes après l'administration intraveineuse dans la veine caudale, des composés de formule (I). Les résultats sont donnés sous la forme de la différence entre le temps de survie mesuré dans un groupe de 10 souris ayant reçu le composé et le temps de survie mesuré dans un groupe de 10 souris ayant reçu le liquide véhicule. Les rapports entre le temps de survie et la dose du composé sont enregistrés graphiquement selon une courbe semilogarithmique. Cette courbe permet le calcul de la "dose efficace 3 secondes" (DE3sec), c'est-à-dire la dose (en mg/kg) qui produit une augmentation de 3 secondes du temps de survie par rapport au groupe témoin de 10 souris traitées par le véhicule. Une augmentation de 3 secondes du temps de survie est à la fois significative statistiquement et reproductible. A titre d'exemple, après injection par voie intrapéritonéale, la DE3sec du trans-N-[3-[5-(6-méthoxynaphtalén-1-yl)-1,3-dioxan-2-yl]propyl]acétamide dans ce test est de 11,4 mg/kg, la DE3sec du cis-N-[3-[5-(6-méthoxynaphtalén-1-yl)-1,3-dioxan-2-yl]propyl]acétamide dans ce test est de 6,1 mg/kg et la DE3sec du trans-N-[3-[5-[6-(cyclopropylméthoxy)naphtalén-1-yl]-1,3-dioxan-2-yl]propyl]acétamide dans ce test est de 6,1 mg/kg. Par voie intraveineuse, après solubilisation dans une solution de 2-hydroxypropyl-β-cyclodextrine, la DE3sec du trans-N-[3-[5-(6-méthoxynaphtalén-1-yl)-1,3-dioxan-2-yl]propyl]acétamide dans ce test est de 2,25 mg/kg.

[2] = test system: ischémie focale permanente par occlusion intraluminale de l'artère cérébrale moyenne chez le rat; assay: permanent focal ischemia model by intraluminal occlusion of the middle cerebral artery in the rat (infarct volume); type: in vivo; conditions: 1 mg/kg intraperitoneal, given 10 minutes, 2 h 30 and 5 h after occlusion; infarct volume evaluated 24 h after occlusion
Text: L'activité neuroprotectrice des composés de formule (I) a été également démontrée dans un modèle d'ischémie focale permanente par occlusion intraluminale de l'artère cérébrale moyenne chez le rat, selon une méthode analogue à celle décrite dans Stroke, 20, 84-91 (1989). Sous anesthésie au méthohexital sodique, on ligature l'artère ptérygopalatine, l'artère carotidienne commune et l'artère carotidienne externe gauche; on introduit un fil de nylon dans l'artère carotidienne interne sur une longueur d'environ 18 mm correspondant à la distance qui sépare la naissance de l'artère carotidienne interne de celle de l'artère cérébrale moyenne. Les composés sont administrés 10 minutes, 2 heures 30 et 5 heures après l'occlusion, aux doses de 0,3; 1; 3 et 10 mg/kg par voie intrapéritonéale. 24 heures après l'occlusion de l'artère cérébrale moyenne, on sacrifie les animaux et on prélève le cerveau. On évalue le volume de l'infarctus cérébral à partir de la mesure de la surface de la nécrose sur 6 coupes coronales colorées par le chlorure de 2,3,5-triphényltétrazolium. A titre d'exemple le trans-N-[3-[5-(6-méthoxynaphtalén-1-yl)-1,3-dioxan-2-yl]propyl]acétamide réduit le volume de l'infarctus cérébral d'environ 30% à la dose de 1 mg/kg.

[3] = ip, 10 min, intraperitoneal injection, survival time measured 10 minutes after administration, dose giving a 3 second increase of survival time vs vehicle group

SMILES	ED (3 s increase of survival time) [1, 3] [mg/kg]	ED (3 s increase of survival time) ([1]; 5 min, intravenous route, solubilised in 2-hydroxypropyl-β-cyclodextrine solution, survival time measured 5 minutes after administration) [mg/kg]	réduit le volume de l'infarctus cérébral [2] [%]
COc1ccc2c(cccc2[C@H]2CO[C@@H](CCCNC(C)=O)OC2)c1 [cis-N-[3-[5-(6-méthoxynaphtalén-1-yl)-1,3-dioxan-2-yl]propyl]acétamide]	6.1		
COc1ccc2c(cccc2[C@H]2CO[C@H](CCCNC(C)=O)OC2)c1 [trans-N-[3-[5-(6-méthoxynaphtalén-1-yl)-1,3-dioxan-2-yl]propyl]acétamide]	11.4	2.25	~30
CC(=O)NCCC[C@H]1OC[C@H](c2cccc3cc(OCC4CC4)ccc32)CO1 [trans-N-[3-[5-[6-(cyclopropylméthoxy)naphtalén-1-yl]-1,3-dioxan-2-yl]propyl]acétamide]	6.1		
